Measurements reported in ChEMBL document CHEMBL1141388, “2-Cyano-pyrimidines: a new chemotype for inhibitors of the cysteine protease cathepsin K” (J Med Chem, 2007).

Experiments:
Cathepsin K = biological target: T1, Cathepsin K (Homo sapiens, UniProt P43235); test: Inhibition of human recombinant cathepsin K
T1 sequence (P43235 whole entry): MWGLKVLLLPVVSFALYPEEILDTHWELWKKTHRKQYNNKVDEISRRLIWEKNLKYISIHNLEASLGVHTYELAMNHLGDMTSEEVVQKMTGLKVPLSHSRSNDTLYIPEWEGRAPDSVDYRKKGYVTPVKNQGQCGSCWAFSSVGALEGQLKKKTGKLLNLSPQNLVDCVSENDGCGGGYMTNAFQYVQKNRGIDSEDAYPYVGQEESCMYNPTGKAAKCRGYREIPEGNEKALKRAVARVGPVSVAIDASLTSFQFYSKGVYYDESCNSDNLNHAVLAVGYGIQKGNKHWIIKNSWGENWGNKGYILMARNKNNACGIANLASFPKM

Cathepsin S = Cathepsin S (Homo sapiens, UniProt P25774); test: Inhibition of human recombinant cathepsin S
Procathepsin L = Procathepsin L (Homo sapiens, UniProt P07711); test: Inhibition of human recombinant cathepsin L
[1] = Half life in rat at 4 uM/kg, iv and 10 uM/kg, po; format: ADME, organism-based; details: in vivo
[2] = Clearance in rat at 4 uM/kg, iv and 10 uM/kg, po; format: ADME, organism-based; details: in vivo

Sequence of Cathepsin S (P25774 whole entry): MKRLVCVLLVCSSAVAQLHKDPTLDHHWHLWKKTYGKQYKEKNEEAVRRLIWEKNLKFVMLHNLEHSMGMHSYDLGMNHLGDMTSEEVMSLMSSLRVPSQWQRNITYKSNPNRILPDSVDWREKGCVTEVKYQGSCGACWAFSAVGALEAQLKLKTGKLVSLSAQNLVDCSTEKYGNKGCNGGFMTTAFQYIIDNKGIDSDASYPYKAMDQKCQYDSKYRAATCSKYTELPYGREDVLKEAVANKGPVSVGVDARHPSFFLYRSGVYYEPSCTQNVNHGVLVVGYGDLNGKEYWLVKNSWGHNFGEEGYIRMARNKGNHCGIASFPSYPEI
Sequence of Procathepsin L (P07711 whole entry): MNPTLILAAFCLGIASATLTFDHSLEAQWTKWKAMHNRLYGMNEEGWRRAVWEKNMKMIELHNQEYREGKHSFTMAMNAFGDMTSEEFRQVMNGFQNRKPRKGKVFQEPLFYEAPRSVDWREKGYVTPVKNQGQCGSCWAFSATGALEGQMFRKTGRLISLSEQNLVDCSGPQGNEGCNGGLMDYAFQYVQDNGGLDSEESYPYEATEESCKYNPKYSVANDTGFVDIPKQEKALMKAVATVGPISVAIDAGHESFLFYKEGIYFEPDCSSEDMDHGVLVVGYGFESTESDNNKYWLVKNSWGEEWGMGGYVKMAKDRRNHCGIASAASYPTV

Row | SMILES | IC50 (Cathepsin K) [nM] | IC50 (Cathepsin S) [nM] | IC50 (Procathepsin L) [nM] | half-life [1] [min] | clearance [2] [mL/min/kg]
1 | N#Cc1ncc(C(=O)NCCc2ccc(N3CCCC3)cc2)c(NC2CCCCC2)n1 | 750 | 2300 | 5100 |  | 
2 | CC(C)(C)CNc1nc(C#N)ncc1C(=O)NCCc1ccc(OCCn2ccnc2)cc1 | 3 | 900 | 520 | 48 | 462
3 | COc1ccc(CCNC(=O)c2cnc(C#N)nc2NC2CCCCC2)cc1 | 22 | 700 | 170 |  | 
4 | N#Cc1cccc(NC2CCCCC2)n1 | 1000 |  |  |  | 
5 | N#Cc1cncc(NC2CCCCC2)n1 | > 1000 |  |  |  | 
6 | N#Cc1cccc(NC2CCCCC2)c1 | > 1000 |  |  |  | 
7 | CN1CCN(c2ccc(CCNC(=O)c3cnc(C#N)nc3NC3CCCCC3)cc2)CC1 | 47 | 480 | 450 |  | 
8 | COc1ccc(CCNC(=O)c2cnc(C#N)nc2NCC(C)(C)C)cc1 | < 3 | 1600 | 340 |  | 
9 | CN1CCN(c2ccc(CCNC(=O)c3cnc(C#N)nc3NCC(C)(C)C)cc2)CC1 | 25 | 3100 | 3900 |  | 
10 | N#Cc1nccc(NC2CCCCC2)n1 | 170 |  |  |  | 
11 | COc1cccc(CCNC(=O)c2cnc(C#N)nc2NCC(C)(C)C)c1 | < 3 | 900 | 1200 |  | 
12 | N#Cc1ccnc(NC2CCCCC2)n1 | 120 |  |  |  | 
13 | CC(C)(C)CNc1nc(C#N)ncc1C(=O)NCCc1ccc(N2CCCC2)cc1 | 300 | > 10000 | > 10000 |  | 
14 | CN1CCN(Cc2ccc(CCNC(=O)c3cnc(C#N)nc3NCC(C)(C)C)cc2)CC1 | 11 | 2500 | 330 |  | 
15 | CC(C)(C)CNc1nc(C#N)ncc1C(=O)NCCc1cccc(OCCn2ccnc2)c1 | 3 | 510 | 680 |  | 
16 | COc1cccc(CCNC(=O)c2cnc(C#N)nc2NC2CCCCC2)c1 | 9 | 230 | 310 |  | 
17 | N#Cc1ncc(C(=O)NCCc2ccccc2)c(NC2CCCCC2)n1 | 10 | 130 | 1100 |  | 
18 | CN1CCN(c2cccc(CCNC(=O)c3cnc(C#N)nc3NCC(C)(C)C)c2)CC1 | 11 | 1800 | 820 |  | 
19 | COc1ccc(CCNC(=O)c2cnc(C#N)nc2NCC(C)(C)C)cc1OCCn1ccnc1 | 31 | 2600 | 580 |  | 
20 | CN1CCC(Oc2ccc(CCNC(=O)c3cnc(C#N)nc3NCC(C)(C)C)cc2)CC1 | 13 | 10000 | 1700 |  | 
